Results on two compounds are retold here after US8227419B2, “Method of treating conditions associated with airway tissue remodeling” (CRC For Asthma and Airways Ltd., priority 2006, dated 2012).

In assay [1] the test system is asthmatic smooth muscle cells. Briefly: MTT proliferation assay, asthmatic airway smooth muscle cells. The class given is cell-based, human. Conditions: peptide 4.5 μM; all timepoints of FIG. 11; n=4 ASM cell lines. The text has this: Human airway smooth muscle cells were isolated by microdissection from bronchial tissue obtained from either bronchoscopy, lung tissue obtained from lung transplants, or lung tissue resected at thoracotomy. Ethical approval for the use of the lung tissue for/in vitro/experimentation was granted by the Human Ethics Committee of the University of Sydney, and the Sydney South West Area Health Service, and informed consent was received from all subjects. Asthmatic ASM cells were isolated from airway biopsies, and all but one of the non asthmatic derived ASM cells were isolated from either resected lung tissue, or lung transplantation (both donor and recipient) This isolation and culture of ASM cells was carried out according to a method described by Johnson et al. 1995. Briefly, with the use of a dissecting microscope, sterile equipment and aseptic technique, bronchial airways were dissected from the surrounding parenchyma and cut longitudinally. The bronchi were then briefly dipped in 70% (v/v) ethanol in water to kill any surface organisms. The bronchi were then washed in sterile Hanks balanced salt solution three times and pinned down in a sterile Petri dish with the epithelial surface facing upwards. […] Proliferation was assessed using an MTT assay (SIGMA-aldrich, Missouri, USA) at day 3, 7 and 9. […] The specific absorption of each well was measured at 690 nm (reference) and 570 nm.
On the technique in general: Tetrazolium dyes change colour on reduction, which living cells bring about.

Assay [2] deals with primary lung endothelial cells. Briefly: MTT proliferation assay, primary lung endothelial cells. In kind it is cell-based, human. Particulars: peptide 4.5 μM; day 3, 7 and 9; n=5 cell lines. As to the method: Human pulmonary endothelial cells were isolated from bronchial tissue obtained during lung transplantation. Blood vessels were dissected free from surrounding tissue and cut longitudinally and then cut into approximately 5 mm segments. Blood vessel segments were then placed in a 15 ml falcon tube containing 10 ml of digestive buffer, (1 mg (250 U)/ml type 2 collagenase, 1 U/ml dispase, 10 mg/ml BSA) the tube was placed in the incubator for 10 minutes and agitated every 2 minutes. Digestive mixture was changed every 10 minutes for a total of 50 minutes. 1/10 volume of FBS was added to the supernantants that were removed every 10 minutes. Supernatants were then centrifuged at 200 g for 5 minutes. Supernantants were removed and cells were washed with culture medium, this contained 10% FBS, 10 μg/ml endothelial cell growth supplement, 20 U/ml heparin and 2% antibiotics, and centrifuged at 200 g for 5 minutes. Supernantants were removed and cells were placed in 75 cm^2 vented tissue culture flasks (Falcon Labware) containing 10 ml of culture medium, and incubated for 1 hour at 37° C. […] Proliferation was assessed using an MTT assay (SIGMA-aldrich, Missouri, USA) at day 3, 7 and 9. […] The specific absorption of each well was measured at 690 nm (reference) and 570 nm.

Structures are written as SMILES. Entries after “also recorded” stand apart in the source; their conditions may differ. Where a SMILES comes first, the peptide text is derived from it.

With `CSCC[C@H](NC(=O)[C@@H](NC(=O)[C@@H](NC(=O)[C@H](Cc1ccccc1)NC(=O)[C@H](CCCNC(=N)N)NC(=O)[C@H](CCC(N)=O)NC(=O)[C@@H](N)CC(C)C)[C@@H](C)O)[C@@H](C)O)C(=O)N1CCC[C@H]1C(=O)N[C@@H](Cc1ccccc1)C(=O)N[C@@H](CC(C)C)C(=O)N[C@@H](Cc1ccccc1)C(=O)N[C@@H](CS)C(=O)N[C@@H](CC(N)=O)C(=O)N[C@H](C(=O)N[C@@H](CC(N)=O)C(=O)N[C@@H](CC(=O)O)C(=O)N[C@H](C(=O)N[C@@H](CS)C(=O)N[C@@H](CC(N)=O)C(=O)N[C@@H](Cc1ccccc1)C(=O)O)C(C)C)C(C)C` [T3] (H-LQRFTTMPFLFCNVNDVCNF-OH; N-terminus and C-terminus assumed), in assay [1], the “inhibition of FBS-induced proliferation of asthmatic smooth muscle cells” value is given as “Neither T3 nor T7 peptides were shown to be able to inhibit; also recorded: not inhibited”. For the same compound, the “inhibition of proliferation of primary lung endothelial cells” value in assay [2] is given as “able to inhibit the proliferation; also recorded: significantly inhibited by the presence of T3 peptide at all timepoints”.

In the case of `CSCC[C@H](NC(=O)[C@@H](N)[C@@H](C)O)C(=O)N1CCC[C@H]1C(=O)N[C@@H](Cc1ccccc1)C(=O)N[C@@H](CC(C)C)C(=O)N[C@@H](Cc1ccccc1)C(=O)N[C@@H](CS)C(=O)N[C@@H](CC(N)=O)C(=O)N[C@H](C(=O)N[C@@H](CC(N)=O)C(=O)N[C@@H](CC(=O)O)C(=O)N[C@H](C(=O)N[C@@H](CS)C(=O)N[C@@H](CC(N)=O)C(=O)N[C@@H](Cc1ccccc1)C(=O)N[C@@H](C)C(=O)N[C@@H](CO)C(=O)N[C@@H](CCCNC(=N)N)C(=O)N[C@@H](CC(N)=O)C(=O)N[C@@H](CC(=O)O)C(=O)N[C@@H](Cc1ccc(O)cc1)C(=O)N[C@@H](CO)C(=O)N[C@@H](Cc1ccc(O)cc1)C(=O)N[C@@H](Cc1c[nH]c2ccccc12)C(=O)N[C@@H](CC(C)C)C(=O)O)C(C)C)C(C)C` [T7] (H-TMPFLFCNVNDVCNFASRNDYSYWL-OH; N-terminus and C-terminus assumed), in assay [1], the “inhibition of FBS-induced proliferation of asthmatic smooth muscle cells” value is listed as “Neither T3 nor T7 peptides were shown to be able to inhibit; also recorded: not inhibited”. Moreover, the “inhibition of proliferation of primary lung endothelial cells” value in assay [2] is “able to inhibit the proliferation; also recorded: inhibited proliferation at both day 7 and day 9”.
